“Also recorded” adds a separate entry of the source.
Key:
GluN1/2C = conditions: cited from earlier work
GluN1/2B = conditions: cited from earlier work
GluN1/2A = conditions: cited from earlier work
GluN1/2D = conditions: cited from earlier work
GluN1/2D NMDA receptor = GluN1/2D NMDA receptor (Rattus norvegicus, UniProt P35439); type: cell-based
GluN1/2B NMDA receptor = GluN1/2B NMDA receptor (Rattus norvegicus, UniProt P35439); type: cell-based; conditions: for current response to analog alone at GluN1/2B: 10 μM analog, continuous presence of 300 μM L-Glu
GluN1^FATL/3B receptors = GluN1^FATL/3B receptors (Rattus norvegicus, UniProt Q8VHN2); experiment: Two-electrode voltage-clamp at GluN1^FATL/3B receptors; type: cell-based; conditions: for activation of current responses at GluN1^FATL/3B: 10 μM analog alone; for inhibition of responses to Gly at GluN1^FATL/3B: 10 μM analog in presence of Gly
Sequence of GluN1^FATL/3B receptors (Q8VHN2 25-1002, other chains not shown): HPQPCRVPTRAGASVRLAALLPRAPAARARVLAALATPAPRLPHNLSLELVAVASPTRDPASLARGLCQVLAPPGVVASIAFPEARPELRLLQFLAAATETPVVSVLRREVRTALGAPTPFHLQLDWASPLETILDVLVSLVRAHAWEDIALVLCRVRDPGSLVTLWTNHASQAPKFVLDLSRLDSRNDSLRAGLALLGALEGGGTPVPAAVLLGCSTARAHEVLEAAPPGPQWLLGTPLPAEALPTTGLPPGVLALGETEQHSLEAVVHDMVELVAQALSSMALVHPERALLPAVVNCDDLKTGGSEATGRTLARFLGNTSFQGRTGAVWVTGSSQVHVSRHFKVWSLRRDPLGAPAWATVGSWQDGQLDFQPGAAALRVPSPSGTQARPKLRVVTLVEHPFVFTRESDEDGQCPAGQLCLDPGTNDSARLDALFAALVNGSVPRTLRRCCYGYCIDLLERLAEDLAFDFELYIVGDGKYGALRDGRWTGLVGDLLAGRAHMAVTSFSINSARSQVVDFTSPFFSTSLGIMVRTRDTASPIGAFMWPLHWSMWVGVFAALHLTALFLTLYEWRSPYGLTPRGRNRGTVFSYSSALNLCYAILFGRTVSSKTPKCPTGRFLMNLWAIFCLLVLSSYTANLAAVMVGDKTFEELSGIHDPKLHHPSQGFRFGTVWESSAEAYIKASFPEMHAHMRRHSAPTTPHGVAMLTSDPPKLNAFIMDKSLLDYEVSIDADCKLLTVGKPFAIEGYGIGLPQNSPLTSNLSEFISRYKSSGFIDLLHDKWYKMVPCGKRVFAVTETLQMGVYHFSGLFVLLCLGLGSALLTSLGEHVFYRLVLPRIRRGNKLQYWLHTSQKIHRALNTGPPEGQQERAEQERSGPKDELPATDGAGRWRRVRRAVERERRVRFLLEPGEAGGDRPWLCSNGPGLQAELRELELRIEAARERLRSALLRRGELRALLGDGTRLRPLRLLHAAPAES

[1] = target: Gly binding site in GluN1/2B receptors (Rattus norvegicus, UniProt P35439+Q00960); experiment: Inhibition of Gly responses at recombinant GluN1/2B; type: cell-based
GluN1^FATL/3A receptors = GluN1^FATL/3A receptors (Rattus norvegicus, UniProt Q9R1M7); experiment: Two-electrode voltage-clamp at GluN1^FATL/3A receptors; type: cell-based; conditions: for activation of current responses at GluN1^FATL/3A: 10 μM analog alone; for inhibition of responses to Gly at GluN1^FATL/3A: 10 μM analog in presence of Gly
Sequence of GluN1^FATL/3A receptors (Q9R1M7 24-1115 isoform Q9R1M7-2 limits assumed, other chains not shown): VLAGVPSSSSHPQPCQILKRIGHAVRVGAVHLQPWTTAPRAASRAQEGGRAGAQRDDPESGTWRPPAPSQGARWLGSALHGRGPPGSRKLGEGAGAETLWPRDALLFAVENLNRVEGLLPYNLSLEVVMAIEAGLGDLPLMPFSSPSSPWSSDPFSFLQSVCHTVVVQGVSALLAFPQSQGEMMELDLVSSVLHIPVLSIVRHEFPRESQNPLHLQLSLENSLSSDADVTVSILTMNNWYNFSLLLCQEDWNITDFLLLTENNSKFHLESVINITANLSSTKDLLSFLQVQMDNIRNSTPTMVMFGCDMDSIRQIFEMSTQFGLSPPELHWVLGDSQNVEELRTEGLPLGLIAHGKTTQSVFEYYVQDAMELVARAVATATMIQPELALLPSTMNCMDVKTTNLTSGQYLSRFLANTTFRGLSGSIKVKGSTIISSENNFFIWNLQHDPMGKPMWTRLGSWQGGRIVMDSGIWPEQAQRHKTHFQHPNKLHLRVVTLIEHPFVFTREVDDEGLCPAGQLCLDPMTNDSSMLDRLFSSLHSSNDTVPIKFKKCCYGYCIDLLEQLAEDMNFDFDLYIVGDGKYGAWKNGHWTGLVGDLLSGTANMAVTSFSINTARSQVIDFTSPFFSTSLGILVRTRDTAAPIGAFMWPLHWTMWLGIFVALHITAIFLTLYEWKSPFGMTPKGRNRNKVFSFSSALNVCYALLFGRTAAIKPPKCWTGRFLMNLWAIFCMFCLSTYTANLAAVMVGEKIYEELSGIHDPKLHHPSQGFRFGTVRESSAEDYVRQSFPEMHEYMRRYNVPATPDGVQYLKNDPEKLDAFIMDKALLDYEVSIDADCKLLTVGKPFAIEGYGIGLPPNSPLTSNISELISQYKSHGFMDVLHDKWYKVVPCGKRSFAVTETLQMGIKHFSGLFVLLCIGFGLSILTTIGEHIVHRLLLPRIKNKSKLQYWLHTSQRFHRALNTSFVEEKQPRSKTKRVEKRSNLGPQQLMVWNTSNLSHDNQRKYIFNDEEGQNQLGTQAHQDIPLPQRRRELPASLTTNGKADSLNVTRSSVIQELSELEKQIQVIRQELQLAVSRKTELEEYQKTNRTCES

GluN1/2A-V783F = GluN1/2A-V783F (Rattus norvegicus, UniProt P35439); experiment: Two-electrode voltage-clamp at mutated GluN1/2A-V783F receptors; type: cell-based; conditions: 10 μM analog; 300 μM L-Glu
GluN1/2B-F784L = GluN1/2B-F784L (Rattus norvegicus, UniProt P35439); experiment: Two-electrode voltage-clamp at mutated GluN1/2B-F784L receptors; type: cell-based; conditions: 10 μM analog; 300 μM L-Glu
GluN1/2A-V783L = GluN1/2A-V783L (Rattus norvegicus, UniProt P35439); experiment: Two-electrode voltage-clamp at mutated GluN1/2A-V783L receptors; type: cell-based; conditions: 10 μM analog; 300 μM L-Glu
GluN1/2A NMDA receptor = GluN1/2A NMDA receptor (Rattus norvegicus, UniProt P35439); type: cell-based
GluN1/2B-F784V = GluN1/2B-F784V (Rattus norvegicus, UniProt P35439); experiment: Two-electrode voltage-clamp at mutated GluN1/2B-F784V receptors; type: cell-based; conditions: 10 μM analog; 300 μM L-Glu
[2] = maximal response compared to Gly

| SMILES | agonist activity at GluN1/2D (in words) (GluN1/2D NMDA receptor) | agonist activity at GluN1/2B (in words) (GluN1/2B NMDA receptor) | activation of current responses at GluN1^FATL/3B (GluN1^FATL/3B receptors) | inhibition of responses to Gly at GluN1^FATL/3B (GluN1^FATL/3B receptors) | current response to analog alone at GluN1/2B (GluN1/2B NMDA receptor) | Ki [1] | activation of current responses at GluN1^FATL/3A (GluN1^FATL/3A receptors) | inhibition of responses to Gly at GluN1^FATL/3A (GluN1^FATL/3A receptors) | other results |
| --- | --- | --- | --- | --- | --- | --- | --- | --- | --- |
| CCc1ccccc1-c1cccc2[nH]c(C(=O)NC[C@@H](N)C(=O)O)cc12 [AICP, (R)-2-Amino-3-(4-(2-ethylphenyl)-1H-indole-2-carboxamido)propanoic acid] | – | – | – | – | – | – | – | – | Rmax at GluN1/2C (GluN1/2C; [2]): 353%; EC50 (GluN1/2C; read-out: EC50 at GluN1/2C, superagonism): 1.7 nM; Rmax at GluN1/2B (GluN1/2B; [2]): 10%; EC50 (GluN1/2B; read-out: EC50 at GluN1/2B, partial agonist): 25 nM; Rmax at GluN1/2A (GluN1/2A; [2]): 100%; EC50 (GluN1/2A; read-out: EC50 at GluN1/2A, full agonism): 66 nM; Rmax at GluN1/2D (GluN1/2D; [2]): 27%; EC50 (GluN1/2D; read-out: EC50 at GluN1/2D, partial agonist): 25 nM |
| N[C@H](CNC(=O)c1ccc(-c2ccccc2C(F)(F)F)o1)C(=O)O [Compound 8d, (R)-2-Amino-3-(5-(2-(trifluoromethyl)phenyl)furan-2-carboxamido)propanoic acid] | no agonist activity | no agonist activity | – | – | – | – | – | – | – |
| CCc1ccccc1-c1ccc(C(=O)NC[C@@H](N)C(=O)O)o1 [Compound 8h, (R)-2-Amino-3-(5-(2-ethylphenyl)furan-2-carboxamido)propanoic acid] | – | no agonist activity | No responses; also recorded: did not activate current responses | did not inhibit responses to Gly | unable to activate any current responses; also recorded: No responses | ~100 nM | No responses; also recorded: did not activate current responses | did not inhibit responses to Gly | – |
| N[C@H](CNC(=O)c1ccc(-c2ccc(Cl)cc2[N+](=O)[O-])o1)C(=O)O [Compound 8p, (R)-2-amino-3-(5-(4-chloro-2-nitrophenyl)furan-2-carboxamido)propanoic acid] | virtually no agonist activity | virtually no agonist activity | No responses; also recorded: did not activate current responses | did not inhibit responses to Gly | unable to activate any current responses; also recorded: No responses | ~100 nM | No responses; also recorded: did not activate current responses | did not inhibit responses to Gly | maximal response relative to Gly at GluN1/2A-V783F versus wild type (GluN1/2A-V783F): reduced the maximal response; maximal response relative to Gly at GluN1/2B-F784L versus wild type (GluN1/2B-F784L): did not significantly increase the maximal response; maximal response relative to Gly at GluN1/2A-V783L versus wild type (GluN1/2A-V783L): reduced the maximal response; agonist activity at GluN1/2A (in words) (GluN1/2A NMDA receptor): virtually no agonist activity; maximal response relative to Gly at GluN1/2B-F784V versus wild type (GluN1/2B-F784V): did not significantly increase the maximal response |
